Test results from patent publication US5508273A, “Substituted phosphonic acids and derivatives useful in treating bone wasting diseases” (priority 1993, dated 1996).

Key:
[1] = biological target: T1, human prostatic tyrosyl phosphatase (Homo sapiens, UniProt P15309); assay: biochemical; conditions: 30 minutes at 37° C., pH 5.5, (14C)-phosphotyrosine substrate; read-out: Tyr-Pase IC50
T1 construct: purchased Sigma Chemical Co
T1 sequence (P15309 33-386): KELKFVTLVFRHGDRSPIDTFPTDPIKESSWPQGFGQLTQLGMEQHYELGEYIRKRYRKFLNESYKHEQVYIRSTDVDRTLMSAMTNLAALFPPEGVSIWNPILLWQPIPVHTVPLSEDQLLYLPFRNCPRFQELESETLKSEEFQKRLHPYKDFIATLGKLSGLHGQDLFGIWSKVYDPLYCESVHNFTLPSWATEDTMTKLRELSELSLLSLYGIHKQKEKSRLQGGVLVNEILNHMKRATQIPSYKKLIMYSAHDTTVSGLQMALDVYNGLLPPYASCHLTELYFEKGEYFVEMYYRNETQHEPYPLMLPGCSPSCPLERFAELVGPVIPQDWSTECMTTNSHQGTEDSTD
Method: Inhibition of the activity of tyrosyl protein phosphatase was evaluated by incubating an aliquot of purified human prostatic tyrosyl protein acid phosphatase (Sigma Chemical Co.) with radiolabeled phosphotyrosine. The radiolabeled substrate, (^14 C)-phosphotyrosine, is separated from the product, (^14 C)-tyrosine by ion exchange chromatography and the production of radiolabeled tyrosine is quantified. Test compounds are screened at a concentration of one micromolar to 1 nM. The ability of test compounds to inhibit tyrosyl phosphatase was expressed as the % inhibition at the highest concentration of test compound tested and/or as the IC50 in Table 1.
The test compounds were incubated in the presence of tyrosyl acid phosphatase and radiolabeled substrate {(^14 C)-phosphotyrosine, (NEN Dupont Custom Synthesis)} plus cold O-phospho-L-tyrosine{(10 uM) (Sigma Chemical Co.)} in a 0.05 mM sodium acetate buffer (pH 5.5) for 30 minutes at 37° C. […] The incubation mixture was passed over an ion-exchange column {(Ag 1-X8) (Bio-Rad Laboratories)} and washed with 2.5 ml of distilled, deionized water. The total column effluent containing the radiolabeled product (^14 C-tyrosine) was collected and quantified by liquid scintillation spectroscopy. The test compounds IC50 was calculated using a quantal (all-or-none) dose-response calculation.

[2] = biological target: T2, Human osteoclastic acid phosphatase (OAP) (Homo sapiens, UniProt P13686); assay: Osteoclastic Acid Phosphatase (OAP) inhibition; type: biochemical; conditions: pH 5.0, room temperature, 20 minutes; for inhibition at 100 µM: read-out: OAPase % Inh@100 uM
T2 construct: purified from hairy cell leukemia spleen; from tissue; host or cells: human hairy cell leukemia spleen
T2 sequence (P13686 22-325): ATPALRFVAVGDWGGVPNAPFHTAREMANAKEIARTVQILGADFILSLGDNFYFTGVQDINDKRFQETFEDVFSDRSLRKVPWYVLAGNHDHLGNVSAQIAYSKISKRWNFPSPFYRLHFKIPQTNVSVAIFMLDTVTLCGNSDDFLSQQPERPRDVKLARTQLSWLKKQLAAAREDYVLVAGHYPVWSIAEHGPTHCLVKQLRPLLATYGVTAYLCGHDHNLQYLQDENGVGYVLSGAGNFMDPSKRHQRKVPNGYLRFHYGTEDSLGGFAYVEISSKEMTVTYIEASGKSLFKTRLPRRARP
Method: Inhibitors of the enzyme are involved with the stimulation of osteoblast cell proliferation in cell culture which is predictive of enhancement of bone mass and bone formation in vivo. Inhibitors of osteoclastic acid phosphatase prevent the resorptive action of osteoclasts and thereby prevent the degradation of bone mass associated with osteoporosis.
The enzyme was stored at -80° C. and was diluted in 50 mM, pH 5.0, sodium acetate buffer prior to use. Test compounds were dissolved in ethanol, DMSO, or water and tested at 100 μM. The assay measures the ability of the enzyme to dephosphorylate methylumbelliferone phosphate to the product, methylumbelliferone, which is fluorescent. The enzyme assay is performed in 50 mM, pH 5.0, sodium acetate buffer as follows: 5 μL of compound was added to 150 μL Of buffered enzyme solution. […] The reaction was performed at room temperature at pH=5.0 and terminated after 20 minutes by the addition of 50 μL of 4N NaOH. The reaction product, methylumbelliferone, was measured by fluorescence determination using a Dynatech Microfluor Fluorescence detector.

[3] = tested on: osteoblast-line cells (mouse MC3T3-E 1 and human TE-85); assay: Osteoblast cell proliferation (3H-thymidine incorporation); type: cell-based; conditions: MC3T3-E1, control is 100%, cell line (MC3T3-E 1 or TE-85) not stated per value, read-out: Osteoblast Prolif (% XControl@ 0.01 uM)
From the text: Compounds of the present invention have utility to treat bone wasting diseases including osteoporosis in animals including humans through enhancement of bone calcification as well as inhibition of bone degeneration or resorption. The compounds of the present invention have been evaluated as inhibitors of human prostatic tyrosyl phosphatase, an isoenzyme similar to a tyrosyl phosphatase present in human osteoblasts. Inhibitors of the enzyme are involved with the stimulation of osteoblast cell proliferation in cell culture which is predictive of enhancement of bone mass and bone formation in vivo. Inhibitors of osteoclastic acid phosphatase prevent the resorptive action of osteoclasts and thereby prevent the degradation of bone mass associated with osteoporosis. Table 1 reports the results of the compounds of the present invention in inhibiting human prostatic tyrosyl phosphatase and osteoclastic acid phosphatase. […] Their ability to stimulate osteoblast cell proliferation at 0.01 uM concentration is presented also in Table 1. […] However, such compounds may be useful as prodrugs to the acid (R^1 and R^2 equal H) and as intermediates useful in making the corresponding acid.
The action of select compounds to stimulate osteoblast growth can be measured in culture by estimating the rate of DNA synthesis by the rate of ^3 H-thymidine incorporation into DNA. Only cells undergoing mitosis will synthesize new DNA and thus only these cells will incorporate the radiolabeled DNA-specific thymidine. The stimulation of the proliferation and differentiation of bone-forming cells, osteoblasts, is a prerequisite for an increase in bone formation and bone mass. The ability of agents to increase osteoblast proliferation and differentiation can be predicted by their action on cultured osteoblast-line cells in vitro. In this test, mouse (MC3T3-E 1) cloned by Sudo et al. Koriyama, Japan) and human (TE-85) osteoblast-line cells (American Type Tissue Culture Collection, #CRL 1543, Rockville, Md.) were cultured/n vitro and the effect of various agents was tested on osteoblast cell proliferation. Osteoblasts were isolated and cultured according to literature methods. [J. E. Puzas, R. H. Drivdahl, A. G. Howard, and D. J. Baylink, Proc. Soc. Exper. Biol. Med., 166 113-122, […]]. Cells were harvested from large culture flasks, where they were allowed to grow to near confluency, using trypsin. The cells were plated into 96 well culture plates, 1600 cells in 100 μL per well in Dulbecco's Modified Eagle's Medium with 25 mM HEPES buffer, L-glutamine (584 mg/L); D-glucose (4.5 g/L) supplemented with fetal bovine sera (10%); penicillin (100 units/mL)and streptomycin (100 mcg/mL); sodium pyruvate (10 μM final concentration). The cells were allowed to plate overnight in DMEM containing 10% fetal bovine sera at 37° C., in an atmosphere of 5% CO2 /95% air. Following their placement into 96 well culture plates all the osteoblast-line cells, either the MC3T3-E 1 or the TE-85 cell lines, were allowed an additional 24 hours preincubation period in media containing only 0.1% fetal bovine sera. The next day the test compounds were added and screened at concentrations ranging from 10^-4 to 10^-8 M depending on the study. Twenty hours later, a 20 μL aliquot of media containing 0.4 μCi of ^3 H-thymidine was added to each culture well. The cells were then incubated an additional 4 hours. The incubation was terminated by aspirating the media and washing with HBSS (Hank's Balanced Salt Solution). The cells were then treated with 100 μL of 0.5% trypsin and […] of EDTA for 30 minutes at room temperature. The cells were then aspirated onto a glass fiber filter and washed with water. The radioactivity on the filters was quantified by liquid scintillation spectroscopy. The rate of ^3 H-thymidine incorporation into DNA is then utilized as an index of cell proliferation. The results are shown in Table 1 expressed as % times control where control is 100%.

| Compound | IC50 [1] | inhibition at 100 µM [2] | IC50 ([2]; read-out: OAPase IC50) | activity at 0.01 µM [3] |
| --- | --- | --- | --- | --- |
| O=P(O)(O)C(c1ccccc1)c1ccccc1F (centres unmarked) [Cmpd 12] | 40.9 µM | 12% | – | 124% |
| Cc1cccc(C(Cc2ccc(Cl)cc2)P(=O)(O)O)c1 (centres unmarked) [Cmpd 30] | 81.9 µM | – | – | 97% |
| Cc1cccc(C(Cc2ccccc2)P(=O)(O)O)c1 (centres unmarked) [Cmpd 29] | 290 µM | 15% | – | 99% |
| O=P(O)(O)C(CCCCc1ccccc1)c1ccccc1 (centres unmarked) [Cmpd 10] | 17.4 µM | – | 100 µM | 124% |

More lines, main results first:

| IC50 [1] | inhibition at 100 µM [2] | IC50 ([2]; read-out: OAPase IC50) | Compound | activity at 0.01 µM [3] |
| --- | --- | --- | --- | --- |
| 89.2 µM | 15% | – | O=P(O)(O)C(Cc1ccccc1)c1ccccc1 (centres unmarked) [Cmpd 34] | 156% |
| 34.5 µM | 30% | – | O=P(O)(O)C(Cc1ccc(Cl)cc1)c1ccccc1 (centres unmarked) [Cmpd 33] | 104% |
| 152 µM | 22% | – | Cc1ccc(C(c2ccccc2)P(=O)(O)O)cc1 (centres unmarked) [Cmpd 22] | 116% |
